Reference: patent publication US10172826B2, “Composition and method to treat and alleviate symptoms of hot flashes in a subject” (U.S. NUTRACEUTICALS, LLC, priority 2015, dated 2019)

How the values were obtained:
[1] = major metabolite of sesamin; cited from earlier work
aromatase = target: T1, aromatase (Homo sapiens, UniProt P11511); conditions: cited from earlier work
T1 sequence (P11511 1-503): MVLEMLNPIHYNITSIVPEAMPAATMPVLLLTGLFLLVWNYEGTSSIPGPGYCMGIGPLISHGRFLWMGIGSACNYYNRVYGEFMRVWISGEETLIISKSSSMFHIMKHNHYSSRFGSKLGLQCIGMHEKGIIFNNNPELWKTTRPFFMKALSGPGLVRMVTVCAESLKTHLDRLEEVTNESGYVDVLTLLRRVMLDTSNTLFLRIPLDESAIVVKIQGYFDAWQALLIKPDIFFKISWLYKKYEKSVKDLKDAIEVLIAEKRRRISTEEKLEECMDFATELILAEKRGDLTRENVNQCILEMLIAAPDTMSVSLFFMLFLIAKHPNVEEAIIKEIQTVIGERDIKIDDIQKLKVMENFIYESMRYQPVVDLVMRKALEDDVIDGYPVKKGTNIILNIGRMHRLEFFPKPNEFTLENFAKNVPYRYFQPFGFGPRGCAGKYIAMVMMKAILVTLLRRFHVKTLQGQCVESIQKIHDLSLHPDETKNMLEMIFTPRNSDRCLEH

[2] = cited from earlier work
[3] = test system: hot flashes in female subjects experiencing symptoms of perimenopause; experiment: Clinical trial of dietary supplement formulas on frequency and severity of hot flashes; assay type: in vivo, women; conditions: summary of the trials
Experimental: In a clinical trial explained below, 36 mg of HMR Lignan was used and in another example, 20 mg was initially used. In the same clinical trial, the carotenoid such as lycopene was used. The lycopene could be formed as a lycopene complex that includes at least one of phytoene, phytofluene, beta-carotene, tocopherols and phytosterols. In an example, 2 to 10 mg of lycopene was used and in another example, 4 to 8 mg of lycopene was used. In a clinical trial explained below, either 8 or 4 mg of lycopene was used and in an example, 0 mg in order to determine the efficacy of the lycopene relative to the HMR Lignan and other components. The composition also included 40 to 120 mg of Diindolymethane (DIM) or 30 to 140 mg of Diindolymethane, and in an example, 50 milligrams of DIM was used in one trial and 100 milligrams in another trial. About 40 to 80 mg of cranberry was used and in an example, 60 milligrams of cranberry was used as cranberry powder, which gave the coloring and other benefits. Cranberry is used to help relieve adverse urinary symptoms and aid and treat urinary tract infections. Other carotenoids that may possibly be used include at least one of astaxanthin, zeaxanthin, lutein, and xanthophylis.
A study was conducted to evaluate the effectiveness of a dietary supplement formulation on the reduction and severity of hot flashes in women. […]

[4] = test system: estrogen sensitive human breast and endometrial cancer cells; conditions: cell cycle progression in G0/G1 phase; cited from earlier work
[5] = test system: endometrial, breast and lung cancer cell lines; conditions: compared with alpha or beta-carotene; cited from earlier work

SMILES: O=C1OC[C@H](Cc2cccc(O)c2)[C@H]1Cc1cccc(O)c1 [Enterolactone, enterolactone]
- Elimination half life [1]: less than 6 hours
- Aromatase activity (aromatase): inhibit aromatase activity

SMILES: CC(C)=CCC/C(C)=C/C=C/C(C)=C/C=C/C(C)=C/C=C/C=C(C)/C=C/C=C(C)/C=C/C=C(\C)CCC=C(C)C [Lycopene]
- Solubility in water [2]: insoluble
- Conclusion on control of hot flashes [3]: work alone to control hot flashes
- Inhibition of IGF-1 induced proliferation [4]: inhibit
- Inhibition of proliferation, relative potency [5]: more potent that alpha or beta-carotene
